# Assay results reported in US8202885B2, “Bridged six-membered ring compounds” (Actelion Pharmaceuticals Ltd., priority 2007, dated 2012).
# Test system: human Cav3.1 Cav3.2 or Cav3.3 channel
# Assay: In vitro assay T channel (FLIPR calcium fluorescence)
# Format: cell-based
# Conditions: HEK293 cells expressing human Cav3.1, Cav3.2 or Cav3.3; 10 mM Ca2+-induced fluo-4 fluorescence; determined up to 10 μM; read-out: T channel antagonistic activity IC50
# In short: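 IC50 (nM) is the antagonist concentration halving the area under the fluorescence peak evoked by 10 mM Ca2+, relative to vehicle, with testing up to 10 μM. Fluo-4-loaded HEK293 cells expressing each human Cav3 subtype received compound 3 min before Ca2+ addition (TEA-based buffer, pH 7.2); signal monitored 8 min at 2 s intervals.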
row,IC50 [µM],Structure (SMILES)
1,3.45,"Cc1cccc(C2=C[C@H]3CC[C@@H]2C[C@]3(CCN(C)CCCc2nc3ccccc3[nH]2)OC(=O)C(C)C)c1 (relative stereo) [Example 5A, rac-Isobutyric acid (1R*,2R*,4R*)-2-(2-{[3-(1H-benzoimidazol-2-yl)-propyl]-methyl-amino}-ethyl)-5-(3-methyl-phenyl)-bicyclo[2.2.2]oct-5-en-2-yl ester]"
2,2.51,"CCOc1ccc(CCN(CC)CC[C@]2(OC(=O)C(C)C)C[C@H]3CC[C@@H]2C=C3c2ccccc2)cc1OCC (relative stereo) [Example 38A, rac-Isobutyric acid (1R*,2R*,4R*)-2-(2-{[2-(3,4-diethoxy-phenyl)-ethyl]-ethyl-amino}-ethyl)-5-phenyl-bicyclo[2.2.2]oct-5-en-2-yl ester]"
3,1.59,"CC(C)C(=O)O[C@@]1(CCN(C)CCCc2nc3ccccc3[nH]2)C[C@H]2CC[C@@H]1C=C2c1ncco1 (relative stereo) [Example 25A, rac-Isobutyric acid (1R*,2R*,4R*)-2-(2-{[3-(1H-benzoimidazol-2-yl)-propyl]-methyl-amino}-ethyl)-5-oxazol-2-yl-bicyclo[2.2.2]oct-5-en-2-yl ester]"
4,2.29,"CN(CCCc1nc2ccccc2[nH]1)CC[C@]1(O)C[C@H]2CC[C@@H]1C=C2c1ccccc1 (relative stereo) [Example 1, rac-(1R*,2R*,4R*)-2-(2-{[3-(1H-Benzoimidazol-2-yl)-propyl]-methyl-amino}-ethyl)-5-phenyl-bicyclo[2.2.2]oct-5-en-2-ol]"
5,2.12,"CO[C@]1(c2ccccc2)C[C@H]2CC[C@@H]1C[C@]2(CCN(C)CCCc1nc2ccccc2[nH]1)OC(=O)C(C)C (relative stereo) [Example 76A, rac-Isobutyric acid (1R*,2R*,4R*,5R*)-2-(2-{[3-(1H-benzoimidazol-2-yl)-propyl]-methyl-amino}-ethyl)-5-methoxy-5-phenyl-bicyclo[2.2.2]oct-2-yl ester]"
6,1.01,"COc1cccc2[nH]c(CCCN(C)CC[C@]3(OC(=O)C(C)C)C[C@H]4CCC[C@@H]3C=C4c3ccccc3)nc12 (relative stereo) [Example 36A, rac-Isobutyric acid (1R*,5R*,6R*)-6-(2-{[3-(4-methoxy-1H-benzoimidazol-2-yl)-propyl]-methyl-amino}-ethyl)-8-phenyl-bicyclo[3.2.2]non-8-en-6-yl ester]"
7,1.57,"COC(=O)c1cccc2[nH]c(CCCN(C)CC[C@]3(O)C[C@H]4CC[C@@H]3C=C4c3ccccc3)nc12 (relative stereo) [Example 19, rac-2-(3-{[2-((1R*,2R*,4R*)-2-Hydroxy-5-phenyl-bicyclo[2.2.2]oct-5-en-2-yl)-ethyl]-methyl-amino}-propyl)-1H-benzoimidazole-4-carboxylic acid methyl ester]"
8,1.33,"CC(C)C(=O)O[C@@]1(CCN(C)CCCc2nc3cccc(O)c3[nH]2)C[C@H]2CC[C@@H]1C=C2c1ccccc1 (relative stereo) [Example 35A, rac-Isobutyric acid (1R*,2R*,4R*)-2-(2-{[3-(7-hydroxy-1H-benzoimidazol-2-yl)-propyl]-methyl-amino}-ethyl)-5-phenyl-bicyclo[2.2.2]oct-5-en-2-yl ester]"
9,0.751,"CC1=C(c2ccccc2)[C@H]2CC[C@@H]1C[C@]2(O)CCN(C)CCCc1nc2ccccc2[nH]1 (relative stereo) [Example 17B, rac-(1R*,2S*,4R*)-2-(2-{[3-(1H-Benzoimidazol-2-yl)-propyl]-methyl-amino}-ethyl)-5-methyl-6-phenyl-bicyclo[2.2.2]oct-5-en-2-ol]"
10,8.03,"CC(C)C(=O)O[C@@]1(CCN(C)CCCc2nc(-c3ccccc3)c(-c3ccccc3)[nH]2)C[C@H]2CC[C@@H]1C=C2c1ccccc1 (relative stereo) [Example 47A, rac-Isobutyric acid (1R*,2R*,4R*)-2-(2-{[3-(4,5-diphenyl-1H-imidazol-2-yl)-propyl]-methyl-amino}-ethyl)-5-phenyl-bicyclo[2.2.2]oct-5-en-2-yl ester]"

# The remaining lines, values behind:
row,Structure (SMILES),IC50 [µM]
1,"COc1cccc2c1nc(CCCN(C)CC[C@]1(O)C[C@H]3CC[C@@H]1C=C3c1ccccc1)n2C (relative stereo) [Example 37, rac-(1R*,2R*,4R*)-2-(2-{[3-(4-Methoxy-1-methyl-1H-benzoimidazol-2-yl)-propyl]-methyl-amino}-ethyl)-5-phenyl-bicyclo[2.2.2]oct-5-en-2-ol]",6.65
2,"CN(CCCc1cnc2ccccc2c1)CC[C@]1(O)C[C@H]2CC[C@@H]1C=C2c1ccccc1 (relative stereo) [Example 49, rac-(1R*,2R*,4R*)-2-{2-[Methyl-(3-quinolin-3-yl-propyl)-amino]-ethyl}-5-phenyl-bicyclo[2.2.2]oct-5-en-2-ol]",> 10
3,"COc1cccc2[nH]c(CCCN(C)CC[C@]3(OC(=O)C4CCC4)C[C@H]4CC[C@@H]3C=C4c3ccccc3)nc12 (relative stereo) [Example 26B, rac-Cyclobutanecarboxylic acid (1R*,2R*,4R*)-2-(2-{[3-(4-methoxy-1H-benzoimidazol-2-yl)-propyl]-methyl-amino}-ethyl)-5-phenyl-bicyclo[2.2.2]oct-5-en-2-yl ester]",> 10
4,"COc1ccc(OC)c2[nH]c(CCCN(C)CC[C@]3(OC(=O)C(C)C)C[C@H]4CCC[C@@H]3C=C4c3ccccc3)nc12 (relative stereo) [Example 69A, rac-Isobutyric acid (1R*,5R*,6R*)-6-(2-{[3-(4,7-dimethoxy-1H-benzoimidazol-2-yl)-propyl]-methyl-amino}-ethyl)-8-phenyl-bicyclo[3.2.2]non-8-en-6-yl ester]",0.727
5,"CCOc1ccc(CCCN(C)CC[C@]2(OC(=O)C(C)C)C[C@H]3CC[C@@H]2C=C3c2ccccc2)cc1OCC (relative stereo) [Example 40A, rac-Isobutyric acid (1R*,2R*,4R*)-2-(2-{[3-(3,4-diethoxy-phenyl)-propyl]-methyl-amino}-ethyl)-5-phenyl-bicyclo[2.2.2]oct-5-en-2-yl ester]",8.93
6,"CN(CCCc1nc2cc(Cl)c(Cl)cc2[nH]1)CC[C@]1(O)C[C@H]2CC[C@@H]1C=C2c1ccccc1 (relative stereo) [Example 27, rac-(1R*,2R*,4R*)-2-(2-{[3-(5,6-Dichloro-1H-benzoimidazol-2-yl)-propyl]-methyl-amino}-ethyl)-5-phenyl-bicyclo[2.2.2]oct-5-en-2-ol]",> 10
7,"COC(=O)c1ccc2[nH]c(CCCN(C)CC[C@]3(OC(=O)C(C)C)C[C@H]4CC[C@@H]3C=C4c3ccccc3)nc2c1 (relative stereo) [Example 20A, rac-2-(3-{[2-((1R*,2R*,4R*)-2-Isobutyryloxy-5-phenyl-bicyclo[2.2.2]oct-5-en-2-yl)-ethyl]-methyl-amino}-propyl)-1H-benzoimidazole-5-carboxylic acid methyl ester]",4.57
8,"Cc1cccc(C)c1C1=C[C@H]2CC[C@@H]1C[C@@]2(O)CCN(C)CCCc1nc2ccccc2[nH]1 (relative stereo) [Example 3, rac-(1R*,2R*,4R*)-2-(2-{[3-(1H-Benzoimidazol-2-yl)-propyl]-methyl-amino}-ethyl)-5-(2,6-dimethyl-phenyl)-bicyclo[2.2.2]oct-5-en-2-ol]",6.63
9,"Cc1ccccc1C1=C[C@H]2CC[C@@H]1C[C@]2(CCN(C)CCCc1nc2ccccc2[nH]1)OC(=O)C(C)C (relative stereo) [Example 4A, rac-Isobutyric acid (1R*,2R*,4R*)-2-(2-{[3-(1H-benzoimidazol-2-yl)-propyl]-methyl-amino}-ethyl)-5-(2-methyl-phenyl)-bicyclo[2.2.2]oct-5-en-2-yl ester]",4.22
10,"COc1cccc2[nH]c(CCCN(C)CCC3(OC(=O)C(C)C)CC4CCC3C=C4c3ccccc3)nc12 [Example 55A, Isobutyric acid (1R,2R,4R)-2-(2-{[3-(4-methoxy-1H-benzoimidazol-2-yl)-propyl]-methyl-amino}-ethyl)-5-phenyl-bicyclo[2.2.2]oct-5-en-2-yl ester or isobutyric acid (1S,2S,4S)-2-(2-{[3-(4-methoxy-1H-benzoimidazol-2-yl)-propyl]-methyl-amino}-ethyl)-5-phenyl-bicyclo[2.2.2]oct-5-en-2-yl ester]",1.07
11,"CO[C@@]1(c2ccccc2)C[C@H]2CC[C@@H]1C[C@]2(O)CCN(C)CCCc1nc2ccccc2[nH]1 (relative stereo) [Example 77, rac-(1R*,2S*,4R*,5S*)-2-(2-{[3-(1H-Benzoimidazol-2-yl)-propyl]-methyl-amino}-ethyl)-5-methoxy-5-phenyl-bicyclo[2.2.2]octan-2-ol]",9.1
12,"Cc1cccc(C2=C[C@H]3CC[C@@H]2C[C@@]3(O)CCN(C)CCCc2nc3ccccc3[nH]2)c1 (relative stereo) [Example 5, rac-(1R*,2R*,4R*)-2-(2-{[3-(1H-Benzoimidazol-2-yl)-propyl]-methyl-amino}-ethyl)-5-(3-methyl-phenyl)-bicyclo[2.2.2]oct-5-en-2-ol]",8.42
13,"CC(C)C(=O)O[C@@]1(CCN(C)CCCc2cnc3occc3c2)C[C@H]2CC[C@@H]1C=C2c1ccccc1 (relative stereo) [Example 41A, rac-Isobutyric acid (1R*,2R*,4R*)-2-{2-[(3-furo[2,3-b]pyridin-5-yl-propyl)-methyl-amino]-ethyl}-5-phenyl-bicyclo[2.2.2]oct-5-en-2-yl ester]",8.26
14,"CN(CCCc1nc2cc(Cl)c(Cl)cc2[nH]1)CC[C@]1(OC(=O)C2CC2)C[C@H]2CC[C@@H]1C=C2c1ccccc1 (relative stereo) [Example 27B, rac-Cyclopropanecarboxylic acid (1R*,2R*,4R*)-2-(2-{[3-(5,6-dichloro-1H-benzoimidazol-2-yl)-propyl]-methyl-amino}-ethyl)-5-phenyl-bicyclo[2.2.2]oct-5-en-2-yl ester]",4.73
